The source of these data is patent publication US5358712A, “Radiopharmaceutical agents for the detection of Alzheimer's disease” (Regents of the University of Minnesota, priority 1993, dated 1994).

In one series the test system is vesamicol receptor. Description: Blocking experiments: inhibition of radiotracer accumulation in the rat by coadministered compound. Type of series: in vivo, rat (male Wistar). The following applies: for effect of coadministered vesamicol on accumulation (in words) / Brain: Blood Ratio / Heart: Blood Ratio: rat; for Brain: Blood Ratio / Heart: Blood Ratio: iv, 60 min. As to the method: *Animals in group 1 received an iv injection of (+)4-[^125 l]HIPP
only. For groups 2, 3, and 4, the radiotracer was coadministered with the
hydrochlorides of (+)7 (0.53 mg/kg), (-)7 (0.53 mg/kg) and vesamicol (0.3
Four groups of male Wistar rats (n=3) were used in these experiments. All animals received an iv dose of 8-10 μCi of the radiotracer in 0.1 ml of 50% aq. ethanol. Additionally, in groups 2, 3 and 4, the radiotracer was coadministered with (+)-HBrPP.HCl(1.3 μmol/kg), (-)-HBrPP.HCl(1.3 μmol/kg) and (dl)-vesamicol hydrochloride (1.1 μmol/kg), respectively. At 60 min. post-injection, blood was collected by cardiac puncture and the animals sacrificed as described above. The data was analyzed as outlined above.
NOTE: The dose of radiotracer injected was 5-7 mCi. Group I was the
control, injected with the radiotracer only. Group II included the
simultaneous injection of "cold"(dl)3-HIPP (HCl) (0.53 mg/kg). Group III
included the simultaneous injection of (dl) vesamicol (HCl) (0.31 mg/kg).
All rats were sacrificed at one hour postinjection.
NOTE: Group I was the control, injected with the radiotracer only. Group
II included the simultaneous injection of "cold"(dl)3-HIPP (HCl) (0.53
mg/kg). Group III included the simultaneous injection of (dl) vesamicol
hydrochloride (0.31 mg/kg). The dose of radiotracer was 8-9 μCi. All
rats were sacrificed at one hour postinjection.
NOTE: Group I received (+)[^125 l]13 only. Group II received the (+)
radiotracer coinjected with 0.31 mg/kg (dl)vesamicol hydrochloride. Group
III received (-)[^125 l]13 only. Group IV received the (-) radiotrace
coinjected with 0.31 mg/kg (dl)vesamicol hydrochloride. All animals were
sacrificed at one hour postinjection. The dose of radiotracer injected pe

Series [1] is described as follows: Tissue distribution (biodistribution) of radioiodinated compound in the rat. The following applies: for tissue uptake at 0.5 h: 30 min.
Setting [2] is: + (dl)-vesamicol HCl 0.3 (Table 3) or 0.31 mg/kg.
Where [3] appears, read: + cold (dl)3-HIPP HCl 0.53 mg/kg.

As for `OC(Cc1ccc(I)cc1)CN1CCC(c2ccccc2)CC1` (racemic) [Compound 5, (dl)-2-Hydroxy-3-(4-iodophenyl)-1-(4-phenylpiperidyl)propane], in the series with vesamicol receptor (conclusion from blocking and regional distribution in vivo), the “vesamicol receptor ligand (in words)” value is “potent ligand”. The “effect of coadministered vesamicol on accumulation (in words)” value in the series with vesamicol receptor is recorded as “can be blocked by vesamicol”. Further, the “brain retention (in words)” value in series [1] (rodent (and monkey)) is “prolonged brain retention”.

Broadly, the tissue uptake is the share of the injected amount in each gram of the tissue. `OC(Cc1ccc([125I])cc1)CN1CCC(c2ccccc2)CC1` (single isomer, unassigned; (+)) [(+)-4-[^125 l]HIPP, 2-Hydroxy-3-(4-iodophenyl)-1-(4-phenylpiperidyl)propane]: the tissue uptake at 5 min was determined as 0.08 %ID/g in series [1] (rat, blood, iv, radioactivity in blood, 5 min); 1.2 %ID/g in series [1] (rat, brain, iv, radioactivity in brain, 5 min); 1.8 %ID/g in series [1] (rat, heart, iv, radioactivity in heart, 5 min); 2.84 %ID/g in series [1] (rat, kidney, iv, radioactivity in kidney, 5 min); 1.58 %ID/g in series [1] (rat, liver, iv, radioactivity in liver, 5 min); 11.5 %ID/g in series [1] (rat, lung, iv, radioactivity in lung, 5 min). The tissue uptake at 5 min in series [1] (rat, muscle, iv, radioactivity in muscle, 5 min) was 0.24 %ID/g; in series [1] (rat, spleen, iv, radioactivity in spleen, 5 min) it was 0.71 %ID/g. Further, the tissue uptake at 0.5 h in series [1] (rat, blood, iv, radioactivity in blood) came to 0.04 %ID/g; in series [1] (rat, brain, iv, radioactivity in brain), 1.22 %ID/g; in series [1] (rat, heart, iv, radioactivity in heart) it was 1.23 %ID/g; in series [1] (rat, kidney, iv, radioactivity in kidney), 2.42 %ID/g; in series [1] (rat, liver, iv, radioactivity in liver), 2.55 %ID/g; in series [1] (rat, lung, iv, radioactivity in lung), 5.59 %ID/g. Besides, the tissue uptake at 0.5 h was determined as 0.25 %ID/g in series [1] (rat, muscle, iv, radioactivity in muscle) and 1.28 %ID/g in series [1] (rat, spleen, iv, radioactivity in spleen). In addition, the tissue uptake at 1 h in series [1] (rat, blood, iv, radioactivity in blood, 60 min) was 0.03 %ID/g; in series [1] (rat, brain, iv, radioactivity in brain, 60 min), 1.23 %ID/g; in series [1] (rat, heart, iv, radioactivity in heart, 60 min) it was 1.12 %ID/g; in series [1] (rat, kidney, iv, radioactivity in kidney, 60 min) it was 2.3 %ID/g; in series [1] (rat, liver, iv, radioactivity in liver, 60 min), 2.43 %ID/g; in series [1] (rat, lung, iv, radioactivity in lung, 60 min), 4.75 %ID/g. The tissue uptake at 1 h in series [1] (rat, muscle, iv, radioactivity in muscle, 60 min) worked out at 0.19 %ID/g; in series [1] (rat, spleen, iv, radioactivity in spleen, 60 min) it was 1.23 %ID/g. Further, the tissue uptake at 3 h in series [1] (rat, brain, iv, radioactivity in brain, 180 min) turned out to be 1.35 %ID/g; in series [1] (rat, heart, iv, radioactivity in heart, 180 min) it was 0.84 %ID/g; in series [1] (rat, kidney, iv, radioactivity in kidney, 180 min) it was 1.81 %ID/g; in series [1] (rat, liver, iv, radioactivity in liver, 180 min), 2.38 %ID/g; in series [1] (rat, lung, iv, radioactivity in lung, 180 min) it was 3.74 %ID/g; in series [1] (rat, muscle, iv, radioactivity in muscle, 180 min), 0.24 %ID/g. Besides, in series [1] (rat, spleen, iv, radioactivity in spleen, 180 min), the tissue uptake at 3 h came to 1.39 %ID/g.

In the case of `OC(Cc1cccc([125I])c1)CN1CCC(c2ccccc2)CC1` (single isomer, unassigned; (+)) [(+)-[^125 l]12] [2-Hydroxyl-3-(3-iodophenyl)-1-[1-(4-phenylpiperidinyl)]propane], the “effect of coadministered vesamicol on accumulation (in words)” value with vesamicol receptor was “inhibited”. Moreover, the “Brain: Blood Ratio” value was found to be 2.14 in the series on vesamicol receptor (setting [2]); 1.92 in the series on vesamicol receptor (setting [3]); 8.49 with vesamicol receptor (radiotracer only (control)); 13.1 in series [1] (rat, iv, 5 min); 9.2 in series [1] (rat, iv, 60 min); 7.2 in series [1] (rat, iv, 180 min). Further, the “Heart: Blood Ratio” value is on record as 1.10 in the series on vesamicol receptor (setting [2]); 1.16 with vesamicol receptor (setting [3]); 3.96 in the series on vesamicol receptor (radiotracer only (control)); 16.4 in series [1] (rat, iv, 5 min); 4.2 in series [1] (rat, iv, 60 min); 2.1 in series [1] (rat, iv, 180 min). Further, the “decrease of concentration in the brain” value in series [1] (rat, 1 hour post-injection vs initial, listed as (+)-[^125 I]12) is recorded as 20%; in series [1] (rat, 3 hours post-injection vs initial, listed as (+)-[^125 I]12), 54%. For the same molecule, the “initial accumulation in the rat brain” value in series [1] (rat, initial, listed as (+)-[^125 I]12) is given as 2.08 % of the injected dose. Also, the radioactivity in brain in series [1] (rat, iv, 180 min) is listed as 0.56 % dose/g.
